Test results: US20140128364A1, “THERAPEUTIC USES OF TIGEMONAM AND CARUMONAM” (priority 2012, published 2014)
Values after ≈ are worked out from the molar mass of the structure shown. Read-outs that look alike come from different tables or passages of the source.

Assays:
[1] = system: Escherichia coli strain ECM6704 (vector pUCP24 alone); experiment: microbe, parasite or virus in culture; type: cell-based; conditions: E. coli ECM6704, vector alone, cation-adjusted Mueller-Hinton broth, 18 h, 35° C.
Method: (§1) MICs were recorded after an eighteen-hour growth at 35° C. […] In Table 1, all genes were cloned into vector pUCP24 and introduced into Escherichia coli strain.

[2] = system: Klebsiella pneumoniae KP1008 (KPC-2); experiment: microbe, parasite or virus in culture; conditions: 18 h
[3] = system: Citrobacter freundii CF1012 (KPC-2); experiment: microbe, parasite or virus in culture; conditions: 18 h
[4] = system: Enterobacter cloacae ECL1026 (KPC-2, TEM-1); experiment: microbe, parasite or virus in culture; type: cell-based; conditions: 18 h
[5] = system: Enterobacter cloacae ECL1055 (KPC-3, TEM); experiment: MIC, CLSI broth microdilution, clinical strain ECL1055; type: cell-based; conditions: clinical strain ECL1055, Enterobacter loacae, 18 h, 35° C.
[6] = system: Escherichia coli EC1007 (KPC-3); experiment: microbe, parasite or virus in culture; conditions: 18 h
[7] = system: Enterobacter cloacae ECL1036 (KPC-3, TEM-1); experiment: microbe, parasite or virus in culture; type: cell-based; conditions: 18 h
[8] = system: Escherichia coli strain ECM6701 expressing KPC-2 β-lactamase; experiment: microbe, parasite or virus in culture; conditions: 18 h
Method: as §1

[9] = system: Escherichia coli strain ECM6702 expressing KPC-3 β-lactamase; experiment: microbe, parasite or virus in culture; conditions: 18 h
Method: as §1

[10] = system: Klebsiella pneumoniae KP1008 (KPC-2); conditions: clinical strain KP1008, Klebsiella pneumoniae, 18 h, 35° C.
[11] = target: purified KPC-2 β-lactamase (Klebsiella pneumoniae, UniProt Q9F663); experiment: Kinetics of monobactam hydrolysis by purified KPC-2
Sequence of purified KPC-2 β-lactamase (Q9F663 25-293 limits assumed): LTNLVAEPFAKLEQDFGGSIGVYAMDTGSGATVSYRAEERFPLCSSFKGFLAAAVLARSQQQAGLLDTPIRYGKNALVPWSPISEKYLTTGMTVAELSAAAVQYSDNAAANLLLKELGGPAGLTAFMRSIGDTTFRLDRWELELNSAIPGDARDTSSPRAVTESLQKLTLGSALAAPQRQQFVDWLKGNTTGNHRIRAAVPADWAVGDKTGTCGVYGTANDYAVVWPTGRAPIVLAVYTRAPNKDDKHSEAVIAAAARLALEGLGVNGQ
Method: The optical density was checked every 2 minutes for 2 hours. […] Vmax and Km values were calculated using “Prizm” software (“GraphPad”). Kcat values were calculated using the equation kcat=Vmax/[enzyme concentration].

[12] = system: Escherichia coli EC1007 (KPC-3); conditions: clinical strain EC1007, Escherichia coli, 18 h, 35° C.
[13] = system: Citrobacter freundii CF1012 (KPC-2); conditions: clinical strain CF1012, Citrobacter freundii, 18 h, 35° C.
[14] = Escherichia coli, read-out: MIC

Structure (SMILES) | MIC [1, 14] [µg/mL] | MIC [2] [µg/mL] | MIC [3] [µg/mL] | MIC ([4]; Enterobacter cloacae) [µg/mL] | MIC ([5]; Enterobacter cloacae, read-out: MIC) [µg/mL] | MIC [6] [µg/mL] | MIC ([7]; Enterobacter cloacae) [µg/mL] | MIC ([8]; Escherichia coli) [µg/mL] | MIC ([9]; Escherichia coli) [µg/mL] | MIC [1] | MIC [10] [µg/mL] | MIC ([4]; clinical strain ECL1026, Enterobacter cloacae, KPC-2, TEM-1, 35° C.) [µg/mL] | MIC [5] [µg/mL] | Km ([11]; 50 mM sodium phosphate pH 7.0, 0.1 mg/ml BSA, 37° C., OD 318 nm) [µM] | kcat ([11]; kcat=Vmax/[enzyme concentration]) [s⁻¹] | MIC ([7]; clinical strain ECL1036, Enterobacter Vcloacae, KPC-3, TEM-1, 35° C.) [µg/mL] | MIC ([8]; E. coli ECM6701, KPC-2, cation-adjusted Mueller-Hinton broth, 35° C.) [µg/mL] | MIC ([9]; E. coli ECM6702, KPC-3, cation-adjusted Mueller-Hinton broth, 35° C.) [µg/mL] | MIC [12] [µg/mL] | MIC [13] [µg/mL]
C[C@H]1[C@H](NC(=O)/C(=N\OC(C)(C)C(=O)O)c2csc(N)n2)C(=O)N1S(=O)(=O)O [Aztreonam, aztreonam] | ≤ 0.125 | – | – | – | – | – | – | – | – | – | – | – | – | – | – | – | – | – | – | –
NC(=O)OC[C@@H]1[C@H](NC(=O)/C(=N\OCC(=O)O)c2csc(N)n2)C(=O)N1S(=O)(=O)O [Carumonam, carumonam] | ≤ 0.125 | 0.5 (≈ 1.07 µM) | 2 (≈ 4.29 µM) | 2 (≈ 4.29 µM) | 4 (≈ 8.58 µM) | 1 (≈ 2.14 µM) | 2 (≈ 4.29 µM) | 0.25 (≈ 0.536 µM) | 0.25 (≈ 0.536 µM) | – | – | – | – | – | – | – | – | – | – | –
CC1(C)[C@H](NC(=O)/C(=N\OCC(=O)O)c2csc(N)n2)C(=O)N1OS(=O)(=O)O [Tigemonam, tigemonam] | – | – | – | – | – | – | – | – | – | <=0.125 μg/ml | 1 (≈ 2.29 µM) | 4 (≈ 9.14 µM) | 8 (≈ 18.3 µM) | 678 | 0.233 | 8 (≈ 18.3 µM) | 0.25 (≈ 0.572 µM) | 0.5 (≈ 1.14 µM) | 1 (≈ 2.29 µM) | 8 (≈ 18.3 µM)
